Among the data in ChEMBL document CHEMBL1687873, “Virtual screening studies on HIV-1 reverse transcriptase inhibitors to design potent leads” (Eur J Med Chem, 2011) are IC50 values, retold here.

For orientation: IC50 means the point on the concentration scale where inhibition reaches its midpoint.

The experiment has as its target Human immunodeficiency virus type 1 reverse transcriptase (Human immunodeficiency virus 1, UniProt Q72547). Kind of experiment: Inhibition of Human immunodeficiency virus 1 reverse transcriptase.
`CC1=C(Sc2cc(Cl)cc(Cl)c2)C(COCCO)C(=O)NC1=O` (centres undefined) came in with an IC50 of 27 nM. This lies in the double-digit nanomolar range.
Molecule `CCC1=C(Sc2ccccc2)C(COC2CCCCC2)C(=S)NC1=O` (centres undefined) had a 50% inhibitory concentration (IC50) of 240 nM.
With `CCOCC1C(=O)NC(=O)C(CC)=C1Sc1cc(Cl)cc(Cl)c1` (centres undefined) the figure was 597 nM; with `CC1=C(Sc2cc(C)cc(C)c2)C(COCCO)C(=O)NC1=O` (centres undefined), 24 nM; with `CC1=C(Sc2cccc(F)c2)C(COCCO)C(=O)NC1=O` (centres undefined), 1.7 nM.
With `CC1=C(Sc2cccc([N+](=O)[O-])c2)C(COCCO)C(=O)NC1=O` (centres undefined) the figure was 5.4 nM; with `CC1=C(Sc2cccc(I)c2)C(COCCO)C(=O)NC1=O` (centres undefined), 4 nM.
Consider `CCOCC1C(=O)NC(=O)C(CC)=C1Sc1cc(C)cc(C)c1` (centres undefined), for which it took 210 nM to reach half-maximal inhibition (IC50).
As for `CCC1=C(Sc2ccccc2)C(COCC2CCCCC2)C(=S)NC1=O` (centres undefined), the figure is 375 nM; as for `Cc1cc(C)cc(SC2=C(C(C)C)C(=O)NC(=O)C2COCCO)c1` (centres undefined), 54 nM.
As for `CCOCC1C(=S)NC(=O)C(CC)=C1Sc1cc(C)cc(C)c1` (centres undefined), the figure is 300 nM; as for `CC1=C(Sc2ccccc2)C(COCc2ccccc2)C(=O)NC1=O` (centres undefined), 111 nM.
Molecule `CCC1=C(Sc2ccccc2)C(COCc2ccc(Cl)cc2)C(=S)NC1=O` (centres undefined) registered an IC50 of 404 nM.
As for `CC1=C(Sc2cccc(O)c2)C(COCCO)C(=O)NC1=O` (centres undefined), the figure is 6.9 nM.
With `CCC1=C(Sc2ccccc2)C(COCCc2ccccc2)C(=S)NC1=O` (centres undefined) the figure was 473 nM.
As to `CC(C)C1=C(Sc2ccccc2)C(COCCO)C(=O)NC1=O` (centres undefined), half-maximal inhibition (IC50) required 31 nM.
In turn, `CC1=C(Sc2cccc(Br)c2)C(COCCO)C(=O)NC1=O` (centres undefined) showed an IC50 of 3.1 nM. Compared with the last molecule, the IC50 is about 10-fold lower.
With `CCOCC1C(=S)NC(=O)C(CC)=C1Sc1ccccc1` (centres undefined) the figure was 137 nM; with `CCC1=C(Sc2cc(C)cc(C)c2)C(COCCO)C(=O)NC1=O` (centres undefined), 80 nM; with `CCC1=C(Sc2ccccc2)C(COCc2ccc(C)cc2)C(=S)NC1=O` (centres undefined), 422 nM.
In turn, `CC1=C(Sc2cccc(Cl)c2)C(COCCO)C(=O)NC1=O` (centres undefined) displayed a concentration for half-maximal inhibition (IC50) of 2.2 nM.
With `COc1cccc(SC2=C(C)C(=O)NC(=O)C2COCCO)c1` (centres undefined) the figure was 20 nM; with `CC1=C(Sc2cccc(C(F)(F)F)c2)C(COCCO)C(=O)NC1=O` (centres undefined), 0.52 nM; with `CCOCC1C(=O)NC(=O)C(CC)=C1Sc1ccccc1` (centres undefined), 100 nM.
